{"source": "patent US20240016941A1", "about": "“COMBINATION THERAPY” (priority 2020, published 2024)", "key": {"[1]": {"molecular_target": "T1, purified LasB protein from P. aeruginosa (Pseudomonas aeruginosa, UniProt P14756)", "T1 construct": "purchased Merck or Charles River Laboratories", "T1 sequence (P14756 198-498)": "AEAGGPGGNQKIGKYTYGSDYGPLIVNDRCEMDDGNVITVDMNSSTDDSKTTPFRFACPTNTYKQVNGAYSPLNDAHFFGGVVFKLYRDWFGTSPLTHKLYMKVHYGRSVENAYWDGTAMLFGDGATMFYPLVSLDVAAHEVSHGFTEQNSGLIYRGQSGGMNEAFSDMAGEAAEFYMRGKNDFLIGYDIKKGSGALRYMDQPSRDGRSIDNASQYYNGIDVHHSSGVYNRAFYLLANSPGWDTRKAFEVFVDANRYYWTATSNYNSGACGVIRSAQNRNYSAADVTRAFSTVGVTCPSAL", "assay": "Fluorometric assay to determine Ki (purified LasB, Abz-Ala-Gly-Leu-Ala-p-Nitro-Benzyl-Amide substrate)", "type": "biochemical", "experimental": "(§1) Experiments were therefore conducted (1) to measure the potency of inhibition of compounds of the invention against purified Pseudomonas aeruginosa LasB enzyme and also experiments were conducted (2) to measure the ability of compounds of the invention to inhibit LasB-catalysed elastin degradation. The first assay uses a commercial fluorescent synthetic peptide and purified LasB enzyme. The LasB hydrolysis kinetics are measured allowing the determination of the IC50 and Ki of the inhibitors; the second is a more physiological assay using dialysed Pseudomonas aeruginosa supernatant as source of enzyme, plus its natural substrate Elastin. It is an “end point assay” that determines the percentage of LasB inhibition by each compound for one particular time point and inhibitor concentration. Technical details are described below:\nThis assay uses commercially available substrate (Abz-Ala-Gly-Leu-Ala-p-Nitro-Benzyl-Amide (Ex: 340 nm, Em: 415 nm) from Peptide International) and purified LasB protein from P. aeruginosa (provided by Merck or Charles River Laboratories). It is performed to determine LasB elastase activity and assess compound inhibition in 96-well plate format. All compounds of Formula (I) were assessed using the method described below.\nMethod: 10 to 140 ng/ml purified LasB is incubated with 250 μM Abz-Ala-Gly-Leu-Ala-p-Nitro-Benzyl-Amide in 50 mM Tris-HCl pH 7.4, 2.5 mM CaCl2), 0.01% of Triton X100 at 37° C. LasB activity (corresponding to fluorescence emission induced by substrate hydrolysis) is measured over 30 min at 37° C. with a fluorescence plate reader such as the Perkin Elmer Envision or similar. Different range of inhibitor concentrations are routinely assessed depending of inhibitor potency from 0.0016 to 200 μM (2-fold dilutions series) in order to determine IC50.\nThe equation used to calculate the Ki from IC50 is: Ki=IC50/(1+([S]/Km)) where [S]=250 μM and Km=214 μM."}, "[2]": {"molecular_target": "T2, LasB elastase activity of dialysed supernatant from P. aeruginosa PAO1 (Pseudomonas aeruginosa, UniProt P14756)", "T2 construct": "Culture supernatants are recovered by centrifugation and filtrated through a 0.22 μM filter; endogenous in cells; host or cells: P. aeruginosa strain PAO1, culture supernatant, filtered and dialysed", "T2 sequence (P14756 198-498)": "as above", "assay": "Elastin Congo-Red assay to determine % inhibition (dialysed PAO1 supernatant)", "type": "biochemical", "conditions": "read-out: Elastin hydrolysis % inhibition @ 25 μM inhibitor concentration", "experimental": "as §1\nThe Elastin assay uses as source of enzyme dialysed supernatant from P. aeruginosa PAO1 and the Elastin Congo-Red as substrate. The natural LasB substrate, elastin, is complexed with the congo-red dye (Elastin Congo-Red, ECR). The elastolysis activity from the culture supernatant will degrade elastin and release the congo-red dye into the supernatant. This red dye release can be measured with a spectrophotometer.\nMethod: To determine LasB elastase activity and assess compound inhibition, an overnight culture of P. aeruginosa strain PAO1 is diluted in LB medium. After reaching an OD600nm of 0.6, this culture is diluted and incubated for additional 18-24 hours in a shaking incubator. Culture supernatants are recovered by centrifugation and filtrated through a […] filter. These supernatants are dialysed (filtration molecules <20 kDa) into a 50 mM Tris-HCl pH 7.4, 2.5 mM CaCl2 solution at 4° C. under agitation for 24 hours. Supernatant dialysed is then mixed volume/volume with the ECR suspension (20 mg/mL of ECR in 100 mM Tris-HCl pH 7.4 buffer supplemented with 1 mM CaCl2)) supplemented with Triton X100 (final concentration of 0.01%) in presence of DMSO (positive control) and/or different concentrations of compound (routinely 50 to 1.56 μM). As a negative control, the dialysed supernatant is replaced by Tris-HCl solution (50 mM Tris-HCl pH 7.4, 2.5 mM CaCl2). The mixed reaction is then incubated overnight in a 37° C. shaking incubator. The reaction supernatant is recovered by centrifugation and the release of congo-red is measured by its absorbance at 495 nm (OD495nm).\nPercentage inhibition is determined using the following equation:\n((OD495 nm value of positive control−OD495nm value of negative control)−(OD495nm value of treated supernatant−OD495nm value of negative control))/(OD495nm value of positive control−OD495nm value of negative control)×100."}}, "data": [{"compound": "COc1cc2sc(CNC(=O)C3(CC(=O)O)Cc4ccccc4C3)nc2cc1C(=O)N1CCOC(CN(C)C)C1", "note": "(stereo not shown) [Example 40, 2-[2-[[5-[2-[(dimethylamino)methyl]morpholine-4-carbonyl]-6-methoxy-1,3-benzothiazol-2-yl]methylcarbamoyl]indan-2-yl]acetic acid]", "values": [{"measurement": "Ki", "setting": "[1]", "value": "50 to 200", "unit": "nM"}, {"measurement": "inhibition at 25 µM", "setting": "[2]", "value": "60 to 80", "unit": "%"}]}, {"compound": "COc1cc2sc(CNC(=O)C3(CC(=O)[O-])Cc4ccccc4C3)nc2cc1OCCC[N+]1(C)CCOCC1", "note": "[Example 16, 2-[2-[[6-methoxy-5-[3-(4-methylmorpholin-4-ium-4-yl)propoxy]-1,3-benzothiazol-2-yl]methylcarbamoyl]indan-2-yl]acetate]", "values": [{"measurement": "Ki", "setting": "[1]", "value": "< 50", "unit": "nM"}, {"measurement": "inhibition at 25 µM", "setting": "[2]", "value": "60 to 80", "unit": "%"}]}, {"compound": "N#Cc1ccc2sc(CNC(=O)C3(CC(=O)O)Cc4ccccc4C3)nc2c1", "note": "[Example 49, 2-[2-[(5-cyano-1,3-benzothiazol-2-yl)methylcarbamoyl]indan-2-yl]acetic acid]", "values": [{"measurement": "Ki", "setting": "[1]", "value": "50 to 200", "unit": "nM"}, {"measurement": "inhibition at 25 µM", "setting": "[2]", "value": "60 to 80", "unit": "%"}]}, {"compound": "CC[N+](C)(CC)CCCOc1cc2nc(CNC(=O)C3(CC(=O)[O-])Cc4ccccc4C3)sc2cc1OC", "note": "[Example 18, 2-[2-[[5-[3-[diethyl(methyl)ammonio]propoxy]-6-methoxy-1,3-benzothiazol-2-yl]methylcarbamoyl]indan-2-yl]acetate]", "values": [{"measurement": "Ki", "setting": "[1]", "value": "< 50", "unit": "nM"}, {"measurement": "inhibition at 25 µM", "setting": "[2]", "value": "60 to 80", "unit": "%"}]}, {"compound": "COc1cc2sc(CNC(=O)C3(CC(=O)[O-])Cc4ccccc4C3)nc2cc1C(=O)N1CC([N+](C)(C)C)C1", "note": "[Example 42, 2-[2-[[6-methoxy-5-[3-(trimethylammonio)azetidine-1-carbonyl]-1,3-benzothiazol-2-yl]methylcarbamoyl]indan-2-yl]acetate]", "values": [{"measurement": "Ki", "setting": "[1]", "value": "200 to 10000", "unit": "nM"}, {"measurement": "inhibition at 25 µM", "setting": "[2]", "value": "60 to 80", "unit": "%"}]}, {"compound": "CN(C)C1CN(C(=O)c2ccc3sc(CNC(=O)C4(CC(=O)O)Cc5ccccc5C4)nc3c2)C1", "note": "[Example 32, 2-[2-[[5-[3-(dimethylamino)azetidine-1-carbonyl]-1,3-benzothiazol-2-yl]methylcarbamoyl]indan-2-yl]acetic acid]", "values": [{"measurement": "Ki", "setting": "[1]", "value": "50 to 200", "unit": "nM"}, {"measurement": "inhibition at 25 µM", "setting": "[2]", "value": "60 to 80", "unit": "%"}]}, {"compound": "COc1cc2sc(CNC(=O)C3(CC(=O)O)Cc4cc(F)c(F)cc4C3)nc2cc1C(=O)N1CCN(C)CC1", "note": "[Example 34, 2-[5,6-difluoro-2-[[6-methoxy-5-(4-methylpiperazine-1-carbonyl)-1,3-benzothiazol-2-yl]methylcarbamoyl]indan-2-yl]acetic acid]", "values": [{"measurement": "Ki", "setting": "[1]", "value": "< 50", "unit": "nM"}, {"measurement": "inhibition at 25 µM", "setting": "[2]", "value": "> 80", "unit": "%"}]}, {"compound": "COc1cc2sc(CNC(=O)C3(CC(=O)O)Cc4ccccc4C3)nc2cc1S(=O)(=O)N1CCC(N(C)C)CC1", "note": "[Example 46, 2-[2-[[5-[[4-(dimethylamino)-1-piperidyl]sulfonyl]-6-methoxy-1,3-benzothiazol-2-yl]methylcarbamoyl]indan-2-yl]acetic acid]", "values": [{"measurement": "Ki", "setting": "[1]", "value": "50 to 200", "unit": "nM"}, {"measurement": "inhibition at 25 µM", "setting": "[2]", "value": "60 to 80", "unit": "%"}]}, {"compound": "COc1cc2sc(CNC(=O)C3(CC(=O)[O-])Cc4ccccc4C3)nc2cc1S(=O)(=O)N1CCC([N+](C)(C)C)CC1", "note": "[Example 47, 2-[2-[[6-methoxy-5-[[4-(trimethylammonio)-1-piperidyl]sulfonyl]-1,3-benzothiazol-2-yl]methylcarbamoyl]indan-2-yl]acetate]", "values": [{"measurement": "Ki", "setting": "[1]", "value": "50 to 200", "unit": "nM"}, {"measurement": "inhibition at 25 µM", "setting": "[2]", "value": "60 to 80", "unit": "%"}]}, {"compound": "COc1cc2sc(CNC(=O)C3(CC(=O)[O-])Cc4cc(F)c(F)cc4C3)nc2cc1C(=O)N1CC([N+](C)(C)C)C1", "note": "[Example 43, 2-[5,6-difluoro-2-[[6-methoxy-5-[3-(trimethylammonio)azetidine-1-carbonyl]-1,3-benzothiazol-2-yl]methylcarbamoyl]indan-2-yl]acetate]", "values": [{"measurement": "Ki", "setting": "[1]", "value": "50 to 200", "unit": "nM"}, {"measurement": "inhibition at 25 µM", "setting": "[2]", "value": "60 to 80", "unit": "%"}]}, {"compound": "COc1cc2sc(CNC(=O)C3(CC(=O)[O-])Cc4ccccc4C3)nc2cc1OCC1CC[N+](C)(C)CC1", "note": "[Example 17, 2-[2-[[5-[(1,1-dimethylpiperidin-1-ium-4-yl)methoxy]-6-methoxy-1,3-benzothiazol-2-yl]methylcarbamoyl]indan-2-yl]acetate]", "values": [{"measurement": "Ki", "setting": "[1]", "value": "50 to 200", "unit": "nM"}, {"measurement": "inhibition at 25 µM", "setting": "[2]", "value": "60 to 80", "unit": "%"}]}]}
